Earlier results in patent US9636304B2, “Pharmaceutical composition comprising citrate and bicarbonate salts, and use thereof for treating cystinuria” (ADVICENNE, priority 2010, dated 2017).

Details: prior art, oral

O=C([O-])CC(O)(CC(=O)[O-])C(=O)[O-].[K+].[K+].[K+] [potassium citrate]
gastric tolerance: mediocre
